We go through 2 compounds from US10729741B2, “Methods of treating burns with i.v. cP12 in a window from 2 to 6 hours after injury” (NeoMatrix Therapeutics Inc., priority 2017, dated 2020).

For one series, the system named is porcine burns. In words: porcine vertical injury progression burn model, wound closure by H&E histology. To be noted: for percent wounds closed (100% re-epithelialization) at 14 d post-burn: compiled data. In kind it is in vivo, pig. As to the method: For a pathobiology proof-of-principle study we used a validated porcine vertical injury progression burn model (Singer A J, Hirth D, McClain S A, Crawford L, Lin F, and Clark R A. Validation of a vertical progression porcine burn model. J Burn Care Res. 2011; 32(6):638-46). In short, while under general anaesthesia, twenty burns were created on the dorsal skin of four outbred female Yorkshire pigs (˜25 kg) using a 2.5×2.5×7.5 cm, 150 gram aluminum bar equilibrated in an 80° C. water bath and applied for 20 s. The application of the 80° C. aluminum bar caused burn injury a little beyond mid-dermis but often progressed to full-thickness within 3-7 days. All burns were treated with petrolatum, and protected with Tegaderm. In some pigs, a fibronectin (FN)-derived peptide (P12) (SEQ ID NO:1) was infused over 30 min at 1, 2, and 4 h post-burn using doses of 0.003, 0.01 or 0.03 mg/kg. The infused P12 peptide (SEQ ID NO:1) was cyclized (cP12) (SEQ ID NO:2) to prevent exopeptidase digestion from amino- and carboxy-peptidases, which are common in the blood and skin.
Tissue specimens taken at 14 days after a 30 min infusion of cP12 (SEQ ID NO:2) doses at 0.003, 0.01, 0.03 or 0.1 mg/kg, where infusions began at 1, 4, 8, 12 and 24 h post-burn, have been fixed, stained with hematoxylin and eosin (H&E), and determined whether the surface of the wound was 100% re-epithelialized, i.e. wound closure obtained. The percent wounds totally re-epithelialized at each cP12 (SEQ ID NO:2) dose and each post-burn time of onset of a 30 min infusion are recorded in Table 1. The number of pigs used for each dose and time is denoted in Table 1 by parentheses. Each pig while under general anesthesia had 20 burn wounds administered on the back by a 2.5×2.5 aluminum bar heated to 80° C. and applied to the skin for 20 sec.
The effect of cP12 (SEQ ID NO:2) doses at 0.003, 0.01, 0.03 or 0.1 mg/kg at 4 h post-burn 30 min-infusion on percent wounds closed at 14d post-burn the 5 experiments performed under these conditions are shown in Table 2. The dates indicate the onset on each experiment, i.e. the date the pigs receive burns.

Series [1] can be described thus: anaphylactoid response with 30 min infusion in pig models. In kind it is in vivo. As to the method:
Depending on the animal type, cP12 (SEQ ID NO:2) (or linear P12. SEQ ID NO:1) can induce an anaphylactoid response at 2.5 to 10 mg/kg given as an iv bolus or even a rapid infusion. This reaction is less likely with a slower infusion.

For a further series, the system named is mesenchymal cell. To be noted: in solution; intrinsically and synergistically with growth factors, especially PDGF-BB; cited from earlier work.
Series [2] has as its system adult human dermal fibroblasts (AHDF). The note with it: oxidative and cytokine stress and/or nutrient withdrawal, in the presence of PDGF-BB; cited from earlier work.
The test system of series [3] is burn injury. The note with it: rat burn model; cited from earlier work.
Series [4] relates to burn injury. The note with it: cited from earlier work.

Read-outs that look alike come from different tables or passages of the source. Residues, ends and D or L forms follow the SMILES beside them.

Take `CC[C@H](C)[C@@H]1NC(=O)[C@H](Cc2ccc(O)cc2)NC(=O)[C@H](CCCCN)NC(=O)[C@H](CO)NC(=O)[C@H]([C@@H](C)CC)NC(=O)[C@H](Cc2c[nH]cn2)NC(=O)[C@H](CO)NC(=O)[C@@H]2CCCN2C(=O)[C@H](CCCCN)NC(=O)[C@@H]2CCCN2C(=O)[C@H](CCCNC(=N)N)NC(=O)[C@H](Cc2c[nH]c3ccccc23)NC(=O)[C@H](CCCNC(=N)N)NC(=O)[C@H](CC(C)C)NC1=O` [cP12] (HELM PEPTIDE1{H.I.S.K.Y.I.L.R.W.R.P.K.P.S}$PEPTIDE1,PEPTIDE1,1:R1-14:R2$$$V2.0): the “percent wounds closed (100% re-epithelialization) at 14 d post-burn” value is 17 (5) percent in the series with porcine burns (0.003 mg/kg, 30 min i.v. infusion begun 1 h post-burn); 37 (3) percent in the series with porcine burns (0.003 mg/kg, 30 min i.v. infusion begun 4 h post-burn); 28 (8) percent in the series on porcine burns (0.01 mg/kg, 30 min i.v. infusion begun 1 h post-burn); 65 (5) percent in the series with porcine burns (0.01 mg/kg, 30 min i.v. infusion begun 4 h post-burn); 34 (5) percent with porcine burns (0.01 mg/kg, 30 min i.v. infusion begun 8 h post-burn); 40 (3) percent with porcine burns (0.01 mg/kg, 30 min i.v. infusion begun 12 h post-burn). Further, the “percent wounds closed (100% re-epithelialization) at 14 d post-burn” value is recorded as 40 (3) percent in the series on porcine burns (0.01 mg/kg, 30 min i.v. infusion begun 24 h post-burn); 8 (8) percent in the series on porcine burns (0.03 mg/kg, 30 min i.v. infusion begun 1 h post-burn); 25 (3) percent in the series on porcine burns (0.03 mg/kg, 30 min i.v. infusion begun 4 h post-burn); 25 (5) percent in the series with porcine burns (0.1 mg/kg, 30 min i.v. infusion begun 1 h post-burn); 50 (2) percent with porcine burns (0.1 mg/kg, 30 min i.v. infusion begun 4 h post-burn); 28 (5) percent in the series on porcine burns (0.1 mg/kg, 30 min i.v. infusion begun 8 h post-burn). Moreover, the “percent wounds closed (100% re-epithelialization) at 14 d post-burn” value is 25 (3) percent in the series on porcine burns (0.1 mg/kg, 30 min i.v. infusion begun 12 h post-burn) and 17 (3) percent in the series with porcine burns (0.1 mg/kg, 30 min i.v. infusion begun 24 h post-burn). Also, the “effectiveness of i.v. treatment by time of administration after wounding” value in the series with porcine burns (administered 2 to 6 hours after wounding versus one hour or 8 to 12 hours after wounding) is reported as “more effective”. Further, the anaphylactoid response entry in series [1] was “avoid any anaphylacoid response”.
Consider “P12: 14-residue fibronectin fragment PSHISKYILRWRPK, cryptic within fibronectin's first type III repeat (FNIII1) (a 14-residue peptide that is cryptic within the immunoglobulin sandwich type of beta-pleated sheet of fibronectin′s first type III repeat)”, for which, in the series with mesenchymal cell, the “mesenchymal cell growth, proliferation and migration” value was “promotes mesenchymal cell growth, proliferation and migration”. For the same compound, the “protection from cell death” value in series [2] was “protects”. The burn injury progression result in the series on burn injury [3] and in the series on burn injury [4] (porcine burn model) was “limits burn injury progression” in each case. For the same compound, in the series with burn injury [4] (vertical burn injury progression pig model), the scarring entry is given as “mitigates scarring”.
